From patent US8034940B2, “Modulators of glucocorticoid receptor, AP-1, and/or NF-κB activity and use thereof” (Bristol-Myers Squibb Company, priority 2006, dated 2011) come the findings set out here.

The subject of the assay is AP-1 induced transcriptional activity. Kind of assay: Cellular Transrepressional Assay (AP-1 luciferase reporter, PMA-activated A549 cells). Format: cell-based. The note with it: Homo sapiens; for Emax: A549, 7 h, maximum inhibition, Cellular Transrepression Assay, read-out: AP-1 Max % inh (Cellular Transrepression Assay); for EC50: A549, Cellular Transrepression Assay. On the procedure: Cellular Transrepressional Assay
To measure the ability of test molecules to inhibit AP-1 induced transcriptional activity we utilized an A549 cell which was stably transfected with a plasmid containing 7× AP-1 DNA binding sites (pAP-1-Luc plasmid, Stratagene Co. La Jolla, Calif.) followed by the gene for luciferase. Cells were activated with 10 ng/ml of […] (PMA) plus or minus test molecules for 7 hours. After 7 hours a luciferase reagent was added to measure luciferase enzymatic activity in the cell. After a 10 minute incubation of luciferase reagent with cells, luminescence was measured in a TopCount luminescence counter. Repression of AP-1 activity was calculated as the percentage decrease in the signal induced by PMA alone. Test molecules were analyzed in the concentration range from 0.1 nM to 40 μM. EC50s were determined by using standard curve fitting methods such as Excel fit (Microsoft Co.).
For orientation: A reporter such as luciferase makes a cellular process visible.

A word on the EC50: it is the concentration at which the effect is half-maximal. On to `COc1ccc2c(c1)Oc1ccccc1[C@H]2C(C)(C)C(=O)Nc1nc(Cc2ccc(-c3cccnc3)cc2)cs1` [Example 55], for which the Emax stood at 75.5% and the half-maximal effective concentration (EC50) is 21.5 nM.

Turning to `COc1ccc(Cc2csc(NC(=O)C(C)(C)[C@H]3c4ccccc4Oc4cc(OC)ccc43)n2)cc1` [Example 57], the Emax was 74.8% and a half-maximal response (EC50) required 11.5 nM.

On to `COc1ccc2c(c1)Oc1ccccc1[C@@H]2C(C)(C)C(=O)Nc1nc(Cc2ccc(-c3ccncc3)cc2)cs1` [Example 58], for which the Emax was 70% and the EC50 was 3.71 nM.

Regarding `COc1ccc2c(c1)Oc1ccccc1[C@@H]2C(C)(C)C(=O)Nc1nc(Cc2ccc(-c3cccnc3)cc2)cs1` [Example 59], the Emax was found to be 58.4% and the concentration for a half-maximal effect (EC50) amounted to 11.8 nM.

Take `CC(C)(C(=O)Nc1nc(-c2ccc(F)c3ccccc23)cs1)C1c2ccccc2Oc2ncccc21` (stereo not drawn) [Example 63]: the Emax came to 75.8%.

`CC(C)(C(=O)Nc1nc(Cc2ccc(-c3ccncc3)cc2)cs1)C1c2ccccc2Oc2ncccc21` (stereo not drawn) [Example 64]: the Emax worked out at 79.3% and a half-maximal response (EC50) required 19.9 nM.

As to `CC(C)(C(=O)Nc1nncs1)C1c2ccccc2Oc2ncccc21` (stereo not drawn) [Example 65], the Emax was determined as 32.2% and the EC50 stood at 345 nM.

On to `CC(C)(C(=O)Nc1nc(-c2ccc(F)c3ccccc23)cs1)C1c2ccccc2Oc2nc(Cl)ccc21` (stereo not drawn) [Example 73], for which the Emax is 60.6% and a half-maximal response (EC50) required 735 nM.

On to `CC(C)(C(=O)Nc1nc(-c2cccc3ccccc23)cs1)C1c2ccccc2Oc2nc(Cl)ccc21` (stereo not drawn) [Example 74], for which the Emax was determined as 71.2% and the half-maximal effective concentration (EC50) was 319 nM.

With `COc1ccc(Cc2csc(NC(=O)C(C)(C)C3c4ccccc4Oc4nc(OC)ccc43)n2)cc1` (stereo not drawn) [Example 77], the Emax is 73.9% and the EC50 is 91.6 nM.

Consider `COc1ccc2c(n1)Oc1ccccc1C2C(C)(C)C(=O)Nc1nc(-c2ccc(F)c3ccccc23)cs1` (stereo not drawn) [Example 78], for which the Emax came out at 65.1% and the midpoint of the response, the EC50, lay at 164 nM.

For the compound `COc1ccc2c(n1)Oc1ccccc1C2C(C)(C)C(=O)Nc1nc(Cc2ccc(-c3ccncc3)cc2)cs1` (stereo not drawn) [Example 79], the Emax turned out to be 62.3% and a half-maximal effect (EC50) was put at 9.42 nM.

For the compound `COc1cccc2c1Oc1ccccc1C2C(C)(C)C(=O)Nc1nc(-c2ccc(F)c3ccccc23)cs1` (stereo not drawn) [Example 82], the Emax was 72.6% and the response was half-maximal at 126 nM (EC50).

Regarding `COc1cccc2c1Oc1ccccc1C2C(C)(C)C(=O)Nc1nc(Cc2ccc(-c3ccncc3)cc2)cs1` (stereo not drawn) [Example 83], the Emax is 69.6% and a half-maximal effect (EC50) was put at 15 nM.

For the compound `COc1ccc(Cc2csc(NC(=O)C(C)(C)C3c4ccccc4Oc4c(OCCN(C)C)cccc43)n2)cc1` (stereo not drawn) [Example 85], the Emax was 88.4%.

For the compound `Cc1cnc(NC(=O)C(C)(C)[C@H]2c3ccccc3Oc3cc(O)ccc32)s1` [Example 87], the Emax was 46% and the half-maximal effective concentration (EC50) came to 91.1 nM.

For the compound `Cc1csc(NC(=O)C(C)(C)[C@H]2c3ccccc3Oc3cc(O)ccc32)n1` [Example 88], the Emax was found to be 49.2% and the EC50 was 128 nM.

Turning to `CC(C)(C(=O)Nc1nccs1)[C@H]1c2ccccc2Oc2cc(O)ccc21` [Example 89], the Emax was determined as 68.3% and the half-maximal effective concentration (EC50) stood at 18.1 nM.

Turning to `CC(C)(C(=O)Nc1nncs1)[C@H]1c2ccccc2Oc2cc(O)ccc21` [Example 90], the Emax worked out at 59.5% and a half-maximal response (EC50) required 6.43 nM.

`CC(C)(C(=O)Nc1nncs1)[C@@H]1c2ccccc2Oc2cc(O)ccc21` [Example 95]: the Emax is 52.2% and a half-maximal response (EC50) required 574 nM.

As to `Cc1nnc(NC(=O)C(C)(C)C2c3ccccc3Oc3cc(O)ccc32)s1` (stereo not drawn) [Example 100], the Emax stood at 71.7% and the midpoint of the response, the EC50, lay at 256 nM.

Take `CN(C)C(=O)c1ccc(-c2ccc3c(c2)Oc2ccccc2C3C(C)(C)C(=O)Nc2nncs2)nc1` (stereo not drawn) [Example 102]: the Emax is 45% and the concentration giving a half-maximal response (EC50) was found to be 58 nM.
